Test results: ChEMBL document CHEMBL5338807, “Design and Synthesis of Bouchardatine Derivatives as a Novel AMP-Activated Protein Kinase Activator for the Treatment of Colorectal Cancer” (J Med Chem, 2023)
Calls of active or inactive are those of the source. The rule behind the calls is not given here.

Assays:
[1] = tested on: RKO; assay: Antiproliferative activity against human RKO cells assessed as reduction in cell viability incubated for 24 hrs; assay type: functional, cell-based
[2] = tested on: RKO; assay: Antiproliferative activity against human RKO cells assessed as inhibition of colony formation at 1 uM measured after 7 days by crystal violet staining based assay; assay type: functional, cell-based; conditions: time 7.0 day
[3] = tested on: RKO; assay: Inhibition of cell migration of human RKO cells at 1 uM incubated for 48 hrs by wound healing assay; assay type: functional, cell-based
[4] = tested on: RKO; assay: Effect on metabolism in human RKO cells assessed as activation of oxidative phosphorylation at 1 uM measured after 24 hrs by seahorse analysis; assay type: functional, cell-based
[5] = tested on: RKO; assay: Effect on metabolism in human RKO cells assessed as enhancement of oxidative phosphorylation at 2 mM measured after 24 hrs by seahorse analysis; assay type: functional, cell-based
[6] = tested on: RKO; assay: Effect on energy metabolism in human RKO cells assessed as decrease in ATP production incubated for 24 hrs by luminescence based analysis; assay type: functional, cell-based
[7] = tested on: RKO; assay: Effect on energy metabolism in human RKO cells assessed as decrease in AMP level incubated for 24 hrs by luminescence based analysis; assay type: functional, cell-based
[8] = tested on: RKO; assay: Effect on metabolism in human RKO cells assessed as inhibition of oxidative phosphorylation at 50 mM measured after 24 hrs by seahorse analysis; assay type: functional, cell-based
[9] = tested on: RKO; assay: Effect on metabolism in human RKO cells assessed as enhancement of oxygen consumption rate at 0.1 uM measured after 24 hrs by seahorse analysis; assay type: functional, cell-based
[10] = tested on: DLD-1; assay: Antiproliferative activity against human DLD-1 cells assessed as reduction in cell viability incubated for 24 hrs; assay type: functional, cell-based; conditions: DLD-1, 24 h
[11] = tested on: HCT-116; assay: Antiproliferative activity against human HCT-116 cells assessed as reduction in cell viability incubated for 24 hrs; assay type: functional, cell-based; conditions: HCT-116, 24 h
[12] = tested on: SW480; assay: Antiproliferative activity against human SW480 cells assessed as reduction in cell viability incubated for 24 hrs; assay type: functional, cell-based; conditions: SW480, 24 h
[13] = Cytotoxicity against human NCM460 cells assessed as reduction in cell viability incubated for 24 hrs; assay type: toxicity, cell-based
[14] = Cytotoxicity against human LX2 cells assessed as reduction in cell viability incubated for 24 hrs; assay type: toxicity, cell-based; conditions: LX-2 cells
[15] = Cytotoxicity against human L02 cells assessed as reduction in cell viability incubated for 24 hrs; assay type: toxicity, cell-based
[16] = tested on: RKO; assay: Antiproliferative activity against human RKO cells assessed as reduction in cell density at 0.1 uM measured after 16 hrs by RTCA assay; assay type: functional, cell-based
[17] = tested on: RKO; assay: Antiproliferative activity against human RKO cells assessed as cell killing at 0.5 uM measured after 16 hrs by RTCA assay; assay type: functional, cell-based
[18] = tested on: RKO; assay: Antiproliferative activity against human RKO cells assessed as inhibition of colony formation at 0.1 uM measured after 7 days by crystal violet staining based assay; assay type: functional, cell-based; conditions: time 7.0 day
[19] = tested on: RKO; assay: Inhibition of cell migration of human RKO cells at 0.1 uM incubated for 48 hrs by wound healing assay; assay type: functional, cell-based
[20] = tested on: RKO; assay: Effect on metabolism in human RKO cells assessed as oxygen consumption rate by measuring enhancement of basal respiration at 0.1 uM measured after 24 hrs by seahorse analysis; assay type: functional, cell-based
[21] = tested on: RKO; assay: Effect on metabolism in human RKO cells assessed as oxygen consumption rate by measuring enhancement of maximal respiration at 0.1 uM measured after 24 hrs by seahorse analysis; assay type: functional, cell-based
[22] = tested on: RKO; assay: Effect on metabolism in human RKO cells assessed as oxygen consumption rate by measuring enhancement of ATP production at 0.1 uM measured after 24 hrs by seahorse analysis; assay type: functional, cell-based
[23] = tested on: RKO; assay: Effect on metabolism in human RKO cells assessed as oxygen consumption rate by measuring enhancement of proton leak at 0.1 uM measured after 24 hrs by seahorse analysis; assay type: functional, cell-based
[24] = tested on: NCM460; assay: Effect on metabolism in human NCM460 cells assessed as change in extracellular acidification rate at 0.1 uM measured after 24 hrs by seahorse analysis; assay type: functional, cell-based
[25] = tested on: RKO; assay: Effect on energy metabolism in human RKO cells assessed as upregulation of ATP production incubated for 24 hrs by luminescence based analysis; assay type: functional, cell-based
[26] = tested on: RKO; assay: Effect on energy metabolism in human RKO cells assessed as increase in AMP level incubated for 24 hrs by luminescence based analysis; assay type: functional, cell-based
[27] = tested on: RKO; assay: Effect on energy metabolism in human RKO cells assessed as increase in mitochondrial membrane potential at 0.1 uM incubated for 24 hrs by rhodamine 123 staining based flow cytometric analysis; assay type: functional, cell-based
[28] = tested on: RKO; assay: Induction of mitochondrial damage in human RKO cells assessed as decrease in ROS level at 0.1 uM incubated for 24 hrs by DCFH-DA staining based flow cytometric analysis; assay type: functional, cell-based
[29] = tested on: RKO; assay: Upregulation of p-AMPK expression in human RKO cells at 0.1 uM incubated for 24 hrs by Western blotting analysis; assay type: functional, cell-based
[30] = tested on: RKO; assay: Upregulation of mitochondrial complex III in human RKO cells at 0.1 uM incubated for 24 hrs by Western blotting analysis; assay type: functional, cell-based
[31] = tested on: RKO; assay: Upregulation of mitochondrial complex V in human RKO cells at 0.1 uM incubated for 24 hrs by Western blotting analysis; assay type: functional, cell-based
[32] = tested on: RKO; assay: Antiproliferative activity against human RKO cells assessed as reduction in cell viability incubated for 24 hrs by propidium iodide staining based high-content screening method; assay type: functional
[33] = tested on: RKO; assay: Antiproliferative activity against human RKO cells assessed as reduction in cell viability incubated for 24 hrs in presence of oligomycin by propidium iodide staining based high-content screening method; assay type: functional
[34] = tested on: RKO; assay: Antiproliferative activity against human RKO cells assessed as reduction in cell viability incubated for 24 hrs in presence of FCCP by propidium iodide staining based high-content screening method; assay type: functional
[35] = tested on: RKO; assay: Antiproliferative activity against human RKO cells assessed as reduction in cell viability incubated for 24 hrs by propidium iodide staining based high-content screening method relative to control; assay type: functional
[36] = tested on: RKO; assay: Antiproliferative activity against human RKO cells assessed as reduction in cell viability incubated for 24 hrs in presence of oligomycin by propidium iodide staining based high-content screening method relative to control; assay type: functional
[37] = tested on: RKO; assay: Antiproliferative activity against human RKO cells assessed as reduction in cell viability incubated for 24 hrs in presence of FCCP by propidium iodide staining based high-content screening method relative to control; assay type: functional
[38] = tested on: RKO; assay: Antitumor activity against human RKO cells xenografted in BALB/nude mouse assessed as tumor growth inhibition at 10 mg/kg, ip administered once daily for 25 days; assay type: functional; conditions: 600 h, time 25 day
[39] = Toxicity in BALB/nude mouse xenografted with human RKO cells assessed as body weight loss at 10 mg/kg, ip administered once daily for 25 days; assay type: organism-based; conditions: in vivo, 600 h, time 25 day
[40] = tested on: RKO; assay: Antitumor activity against human RKO cells xenografted in BALB/nude mouse assessed as activation of p-AMPKalpha at Thr172 residue in tumor tissue at 10 mg/kg, ip administered once daily for 25 days by immunohistochemical based microscopic analysis; assay type: functional, organism-based; conditions: time 25.0 day

CN(C)CCCNc1nc(-c2[nH]c3ccccc3c2C=O)nc2ccccc12
IC50 [1]: 1700 nM
inhibition [2]: Active
inhibition [3]: Active
Activity [4]: Active

O=Cc1c(-c2nc3ccccc3c(=O)[nH]2)[nH]c2ccccc12
IC50 [1]: > 10000 nM
inhibition [2]: Active
inhibition [3]: Active
Activity [4]: Active

CCN1CCC[C@H]1CNc1nc(-c2[nH]c3ccccc3c2C=O)nc2ccccc12
IC50 [1]: 900 nM
inhibition [2]: Active
inhibition [3]: Active
Activity [4]: Active

NC(=O)c1ncn([C@@H]2O[C@H](CO)[C@@H](O)[C@H]2O)c1N
Activity [5]: Active
Activity [6]: Active
Activity [7]: Active

Cc1ccc2[nH]c(-c3nc(NCCN4CCCC4)c4ccccc4n3)c(C=O)c2c1
IC50 [1]: 700 nM
inhibition [2]: Active
inhibition [3]: Active
Activity [4]: Active

O=Cc1c(-c2nc(NCCc3ccccc3)c3ccccc3n2)[nH]c2ccccc12
IC50 [1]: 800 nM
inhibition [2]: Active
inhibition [3]: Active
Activity [4]: inactive

CN(C)C(=N)NC(=N)N
inhibition [8]: Active
Activity [6]: Active

O=Cc1c(-c2nc(NCCc3ccc(O)cc3)c3ccccc3n2)[nH]c2ccccc12
Activity [9]: Active
IC50 [1]: 100 nM
IC50 [10]: < 1000 nM
IC50 [11]: < 1000 nM
IC50 [12]: < 1000 nM
IC50 at 24 h [13]: > 15000 nM
IC50 at 24 h [14]: > 15000 nM
IC50 at 24 h [15]: > 15000 nM
Activity [16]: Active
Activity [17]: Active
inhibition [18]: Active
inhibition [19]: Active
Activity [20]: Active
Activity [21]: Active
Activity [22]: Active
Activity [23]: Active
Activity [24]: inactive
Activity [25]: Active
Activity [26]: Active
Activity [27]: Active
Activity [28]: Active
Activity [29]: Active
Activity [30]: Active
Activity [31]: Active
IC50 [32]: 70 nM
IC50 [33]: > 1000 nM
IC50 [34]: > 1000 nM
inhibition (INH) [35]: 92%
inhibition (INH) [36]: 52%
inhibition (INH) [37]: 25%
inhibition in vivo at 10 mg/kg [38]: 58.2%
Activity [39]: Non-Toxic
Activity [40]: Active

Cc1ccc(S(=O)(=O)Nc2nc(-c3[nH]c4ccccc4c3C=O)nc3ccccc23)cc1
IC50 [1]: > 10000 nM

O=Cc1c(-c2nc(NC3CC3)c3ccccc3n2)[nH]c2ccccc12
IC50 [1]: 3900 nM

CN(C)c1nc(-c2[nH]c3ccccc3c2C=O)nc2ccccc12
IC50 [1]: 4800 nM

CN(C)CC(C)(C)CNc1nc(-c2[nH]c3ccccc3c2C=O)nc2ccccc12
IC50 [1]: 5300 nM

COc1ccc2[nH]c(-c3nc(NCCCN(C)C)c4ccccc4n3)c(C=O)c2c1
IC50 [1]: 8100 nM

CC(=O)c1c(-c2nc(NCCN3CCCCC3)c3ccccc3n2)[nH]c2ccccc12
IC50 [1]: 9500 nM

O=Cc1c(-c2nc(NCCN3CCCC3)c3ccccc3n2)[nH]c2ccccc12
IC50 [1]: 1100 nM

O=Cc1c(-c2nc(NCC3CCC3)c3ccccc3n2)[nH]c2ccccc12
IC50 [1]: 6200 nM

Cc1c(-c2nc(N(C)CCCN(C)C)c3ccccc3n2)[nH]c2ccccc12
IC50 [1]: > 10000 nM
